From PMC10266451, “SKF96365 modulates activity of CatSper channels in human sperm” (Molecular Human Reproduction, 2023)

Columns and labels:
Format in all cases: cell-based
[1] = molecular target: T1, CatSper (cation channel of sperm) (Homo sapiens, UniProt Q7RTX7+Q86XQ3+Q8NEC5+Q96P56); assay: fluo4 Ca2+ population fluorimetry in human sperm; conditions: activation, capacitated intact sperm, sEBSS with BSA, whole-cell [Ca2+]i read-out attributed to CatSper
T1 construct: gene CATSPER1; native channel complex in capacitated donor spermatozoa; with Cation channel sperm-associated auxiliary subunit beta; Cation channel sperm-associated auxiliary subunit gamma; Cation channel sperm-associated auxiliary subunit delta; Cation channel sperm-associated auxiliary subunit epsilon; Cation channel sperm-associated auxiliary subunit zeta

[2] = molecular target: T1, CatSper (cation channel of sperm); assay: whole-cell patch clamp of human sperm, Cs+ CatSper currents; conditions: activation within 30 s, followed by secondary block; divalent-free Cs+ solutions, ramps -80 to 80 mV
[3] = molecular target: T1, CatSper (cation channel of sperm); assay: as above; conditions: activation, stable; divalent-free Cs+ solutions, ramps -80 to 80 mV; direct binding to CatSper not tested

EC50 ([1]; mechanism distinct from progesterone) [µM] | % current enhancement at 30 μM [2] [%] | Compound | EC50 ([1]; direct binding to CatSper not tested) [µM] | % current increase at 3 μM [3] [%]
9.5 | 100 | COc1ccc(CCCOC(Cn2ccnc2)c2ccc(OC)cc2)cc1 (stereo not shown) [SKF96365] | – | –
– | – | CC(=O)[C@H]1CC[C@H]2[C@@H]3CCC4=CC(=O)CC[C@]4(C)[C@H]3CC[C@]12C [progesterone] | 0.032 | 200
